Square brackets hold non-standard residues; d marks the D form. Peptide text beside a SMILES is read from it. * marks the point of attachment. NHOctadecyl = CCCCCCCCCCCCCCCCCCN*; Cya = N[C@@H](CS(=O)(=O)O)C(=O)O; NMeF = CN[C@@H](Cc1ccccc1)C(=O)O; Cha = N[C@@H](CC1CCCCC1)C(=O)O; Phg = N[C@H](C(=O)O)c1ccccc1; X8 = CCCCCCCCCCCCCCCCCCO*; Nle = CCCC[C@H](N)C(=O)O; Piperidide = C1CCN(*)CC1; X7 = O=C(CO*)OCc1ccccc1; NHDecyl = CCCCCCCCCCN*; PhAc = O=C(Cc1ccccc1)*; ODecyl = CCCCCCCCCCO*; X1 = CCCCCCCCCCCCCCO*; X4 = CCN(CC)C(=O)CO*; Bz = O=C(c1ccccc1)*; OBn = c1ccc(CO*)cc1; X5 = CCCCCCCCCCCCO*; Ahx = NCCCCCC(=O)O; X6 = O=C(O)CO*
molecular target: T1, VLA-4 receptor (Homo sapiens, UniProt P05556+P13612); assay: In vitro binding assay: inhibition of binding of 51Cr-labeled Jurkat cells to solid phase-bound CS-1 compound (SEQ ID NO:1); type: cell-based; settings: not given
T1 construct: inflammatory cells that contain the VLA-4 receptor [Jurkat cells; host or cells: Jurkat cells (human T lymphoblastic line)
T1 sequence (P13612 34-1032): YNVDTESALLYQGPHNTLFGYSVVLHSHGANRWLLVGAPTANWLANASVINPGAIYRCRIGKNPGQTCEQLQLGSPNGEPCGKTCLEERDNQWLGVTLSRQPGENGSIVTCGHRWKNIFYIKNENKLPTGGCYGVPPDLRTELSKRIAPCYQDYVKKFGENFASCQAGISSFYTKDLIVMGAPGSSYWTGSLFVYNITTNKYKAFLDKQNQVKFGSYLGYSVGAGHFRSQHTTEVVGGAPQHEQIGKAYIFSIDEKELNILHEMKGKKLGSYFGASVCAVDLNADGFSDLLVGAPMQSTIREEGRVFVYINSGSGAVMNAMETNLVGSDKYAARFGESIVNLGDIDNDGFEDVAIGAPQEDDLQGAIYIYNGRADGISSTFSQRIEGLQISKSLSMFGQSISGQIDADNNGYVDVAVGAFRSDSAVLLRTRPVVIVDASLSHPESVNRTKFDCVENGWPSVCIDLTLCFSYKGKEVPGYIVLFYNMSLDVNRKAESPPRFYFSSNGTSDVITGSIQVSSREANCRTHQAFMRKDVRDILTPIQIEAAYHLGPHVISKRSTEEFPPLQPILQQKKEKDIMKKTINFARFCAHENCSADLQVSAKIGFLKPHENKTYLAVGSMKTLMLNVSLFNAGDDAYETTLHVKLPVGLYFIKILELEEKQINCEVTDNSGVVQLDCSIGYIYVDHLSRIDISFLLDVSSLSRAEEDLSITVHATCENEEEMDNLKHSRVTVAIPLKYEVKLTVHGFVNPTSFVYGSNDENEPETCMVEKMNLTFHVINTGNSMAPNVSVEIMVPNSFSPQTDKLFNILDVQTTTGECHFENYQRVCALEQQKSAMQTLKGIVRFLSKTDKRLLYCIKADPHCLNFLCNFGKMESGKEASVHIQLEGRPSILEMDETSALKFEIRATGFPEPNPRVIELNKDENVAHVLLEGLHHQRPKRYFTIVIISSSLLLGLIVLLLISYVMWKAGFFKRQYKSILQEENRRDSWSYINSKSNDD
T1 sequence (P05556 21-798): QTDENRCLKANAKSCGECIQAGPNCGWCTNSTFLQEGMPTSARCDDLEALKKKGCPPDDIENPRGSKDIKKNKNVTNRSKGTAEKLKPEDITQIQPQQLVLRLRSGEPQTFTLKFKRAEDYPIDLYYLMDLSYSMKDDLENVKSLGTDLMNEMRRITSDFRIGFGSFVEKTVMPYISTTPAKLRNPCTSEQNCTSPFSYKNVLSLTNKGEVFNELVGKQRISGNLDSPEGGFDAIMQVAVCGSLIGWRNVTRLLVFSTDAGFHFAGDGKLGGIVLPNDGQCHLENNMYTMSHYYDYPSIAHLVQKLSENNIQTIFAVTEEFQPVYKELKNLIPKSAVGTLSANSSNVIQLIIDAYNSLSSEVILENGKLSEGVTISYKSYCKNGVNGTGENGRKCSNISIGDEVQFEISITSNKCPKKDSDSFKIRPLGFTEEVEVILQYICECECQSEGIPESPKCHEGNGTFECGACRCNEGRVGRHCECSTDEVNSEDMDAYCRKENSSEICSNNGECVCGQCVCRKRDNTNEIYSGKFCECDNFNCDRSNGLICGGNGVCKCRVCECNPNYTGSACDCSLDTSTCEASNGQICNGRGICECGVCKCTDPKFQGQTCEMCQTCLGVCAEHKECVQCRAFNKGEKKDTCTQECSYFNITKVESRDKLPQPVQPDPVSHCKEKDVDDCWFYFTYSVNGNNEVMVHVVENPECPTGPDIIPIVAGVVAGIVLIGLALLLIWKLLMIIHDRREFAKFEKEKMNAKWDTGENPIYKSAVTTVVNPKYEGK
Procedure: Binding inhibition is measured here as a concentration of compound that inhibits one-half the binding between a standard number of Jurkat cells and a standard amount of CS-1 compound bound to the surface of a microtiter plate well. Those concentrations are conveniently expressed as IC50 values, smaller numbers indicating a lower concentration required to inhibit 50 percent binding and therefore greater potency. Further specifics of this assay are provided hereinafter.
Jurkat cells (ATCC TIB 152), a human T lymphoblastic line, labeled with ^51 chromium were used to assay in vitro binding inhibition provided by various compounds discussed herein.
The plates were prepared as follows: The 25-mer CS-1 compound (SEQ ID NO:1) dissolved at 0.5-1 μg/ml in a buffer of 0.1M NaHCO3 at pH 9.5 that also contained 10 μg/ml of bovine serum albumin (BSA) or a conjugate of the CS-1 compound linked to ovalbumin (CS-1-OVA) dissolved at 1-2.5 μg/ml in the same buffer was used as the substrate. Each well of the microtiter plates was coated with 50 μl of substrate or buffer alone for controls. The wells were permitted to dry out completely and were then rinsed twice with PBS at pH 7.4. Non-specific binding sites of each well were then blocked using 200 μl per well of RPMI/1 percent BSA for two hours at room temperature.
Jurkat cells (3-5×10^6 cells) were placed into a 15 ml Falcon™ round-bottom tube with a cap. The tube was centrifuged, and the extra medium was then removed.
Two hundred microliters of a ^51 Cr labeling solution were added to the centrifuged cells and maintained in contact with the cells for 90-120 minutes in a warm room. […] Longer contact times provide a greater amount of labeling but lower cell viability.
The labeled cells are washed with (i) complete medium, (ii) 1 mM EDTA/PBS and then (iii) RPM1/1 percent BSA free of serum components. The cells are centrifuged after each washing. The cells are finally resuspended in serum-free RPMI/1 percent BSA at a concentration of 1×10^6 viable cells/ml, which provides a concentration that is diluted by one-half in the assay.
Inhibitor compounds are prepared as stock solutions at 20 mg/ml in DMSO in 1.5 ml cryogenic screwcap vials, and were stored at -70° C. Using Flow™ round-bottom or V-bottom microtiter plates, the inhibitor compounds were prepared at twice the assay concentration in RPMI/1 percent BSA at 60 μl/well.
Four initial dilutions were typically used.
The ^51 Cr-labeled cells ([…] at 60 μl/well) were then admixed with the diluted compound solutions. The admixtures were maintained at room temperature (about 22° C.) for 30 minutes.
One hundred microliters of each inhibitor compound/cell admixture were transferred to the substrate-coated wells. This was done in triplicate for each dilution. The resulting plates were incubated for 30 minutes at 37° C. and then washed gently three times with RPMI/1 percent BSA at 200 μl/well. Binding was observed microscopically, particularly after the second wash.
The bound cells were then lysed by the addition of a 0.5 percent solution of sodium dodecylsulfate in water at 100 μl/well. The resulting solutions were then processed for counting and calculation of IC50 values following usual procedures.
The data of Table 1 are normalized to the binding of SEQ ID NO:3. […] Multiple assays for the same compound were averaged.

SMILES	binding inhibition, in words (compared with standard 10-mer of SEQ ID NO:3 or other compounds)
CCCCCCCCCCCCCCCCCCNC(=O)CCCCCNC(=O)[C@@H]1CCCN1C(=O)[C@H](Cc1ccccc1)NC(=O)[C@H](CC(=O)O)NC(=O)[C@H](CC(C)C)NC(=O)Cc1ccccc1 [1068.01, phenylacetyl-Leu-Asp-Phe-Pro-NH(CH2)5 C(O)NHC18 H37] (PhAc-LDFP[Ahx]-NHOctadecyl)	binding inhibition similar to that exhibited by the standard 10-mer compound of SEQ ID NO:3

same assay, conditions: binding inhibition potency (IC50) normalized to standard compound of SEQ ID NO:3 = 1; multiple assays averaged; about one-tenth or less assigned zero

SMILES	Relative Potency
NC(=O)[C@H]1CCCN1C(=O)[C@H](Cc1ccccc1)NC(=O)[C@H](CC(=O)O)NC(=O)[C@H](CC1CCCCC1)NC(=O)c1ccccc1 [896.31] (Bz-[Cha]DF[dP]-NH2)	11
CC(C)C[C@H](NC(=O)c1ccccc1)C(=O)N[C@@H](CC(=O)O)C(=O)N[C@H](C(=O)N1CCC[C@H]1C(N)=O)C(C)C [896.35]	16
CC(C)C[C@H](NC(=O)Cc1ccccc1)C(=O)N[C@@H](CS)C(=O)N[C@@H](Cc1ccccc1)C(=O)N1CCC[C@@H]1C(N)=O [896.59] (PhAc-LCF[dP]-NH2)	0
CC(C)C[C@H](NC(=O)Cc1ccccc1)C(=O)N[C@@H](CC(=O)O)C(=O)N[C@H](C(=O)N1CCC[C@@H]1C(N)=O)c1ccccc1 [896.69] (PhAc-LD[Phg][dP]-NH2)	61
CC(C)C[C@H](NC(=O)c1ccccc1)C(=O)N[C@@H](CC(=O)O)C(=O)N[C@H](C(=O)N1CCC[C@@H]1C(N)=O)C(C)C [926.02]	9.6
O=C(O)C[C@H](NC1CCN(C(=O)Cc2ccccc2)CC1)C(=O)N[C@@H](Cc1ccccc1)C(=O)N1CCCC1 [992.01]	0
CC(C)C[C@H](NC(=O)Cc1ccccc1)C(=O)N[C@@H](CC(=O)O)C(=O)N[C@@H](Cc1ccccc1)C(N)=O [997.12] (PhAc-Leu-Asp-Phe-NH2)	.48
CC(C)C[C@H](NC(=O)Cc1ccccc1)C(=O)N[C@@H](CC(=O)O)C(=O)NC1Cc2ccccc2N(CCN2CCOCC2)C1=O (stereo partly drawn) [997.18]	20
CC(C)C[C@H](NC(=O)Cc1ccccc1)C(=O)NC(CC(=O)O)(CC(=O)O)C(=O)N[C@@H](Cc1ccccc1)C(=O)N1CCCCC1 [1026.01]	0
CC(C)C[C@H](NC(=O)Cc1ccccc1)C(=O)NC(C(=O)O)C(=O)N[C@@H](Cc1ccccc1)C(=O)N1CCCCC1 (stereo partly drawn) [1026.02]	0
CC(C)C[C@H](NC(=O)Cc1ccccc1)C(=O)N[C@@H](CS(=O)(=O)O)C(=O)N[C@@H](Cc1ccccc1)C(=O)N1CCCCC1 [1026.06] (PhAc-Leu-[Cya]-Phe-Piperidide)	0
CC(C)C[C@H](NC(=O)Cc1ccccc1)C(=O)N[C@@H](CP(=O)(O)O)C(=O)N[C@@H](Cc1ccccc1)C(=O)N1CCCCC1 [1026.07]	0
CC(C)C[C@H](NC(=O)Cc1ccccc1)C(=O)N[C@@H](CS(N)(=O)=O)C(=O)N[C@@H](Cc1ccccc1)C(=O)N1CCCCC1 [1026.08]	0
CC(C)CN(CC(=O)Nc1ccccc1)C(=O)CN(CC(=O)O)C(=O)CN(Cc1ccccc1)C(=O)C1CCCC1 [1032.02]	.63
CC(C)C[C@@H](CN[C@@H](CC(=O)O)C(=O)N[C@@H](Cc1ccccc1)C(=O)N1CCCCC1)NC(=O)Cc1ccccc1 [1041.01]	0
CC(C)C[C@H](NC(=O)Cc1ccccc1)C(=O)N[C@@H](CC(=O)O)C(=O)N1C(=O)N(Cc2ccccc2)C(=O)[C@H]1Cc1ccccc1 [1047.07]	.38
CC(C)C[C@H](NC(=O)Cc1ccccc1)C(=O)N[C@@H](CC(=O)O)C(=O)N1C(=O)N(Cc2ccccc2)C(=O)[C@@H]1Cc1ccccc1 [1047.08]	.38
CC(C)C[C@H](NC(=O)Cc1ccccc1)C(=O)N[C@@H](CC(=O)O)C(=O)N[C@@H](Cc1ccccc1)C(=O)NCCCO [1051.05]	25
NC(=O)[C@H]1CCCN1C(=O)[C@H](Cc1ccccc1)NC(=O)[C@H](CC(=O)O)NC(=O)CCCCC1CCSS1 (stereo partly drawn) [1056.09]	1.1
O=C(O)CC(C(=O)N[C@@H](Cc1ccccc1)C(=O)N1CCCCC1)N1CC[C@H](NC(=O)Cc2ccccc2)C1=O (stereo partly drawn) [1057.01]	.88
CC(C)C[C@H](NC(=O)Cc1ccccc1)C(=O)N[C@@H](CC(=O)O)C(=O)NC1CCCCN(CC(N)=O)C1=O (stereo partly drawn) [1057.06]	97
CC(C)C[C@H](NC(=O)Cc1ccccc1)C(=O)N[C@@H](CC(=O)O)C(=O)N[C@@H](Cc1ccccc1)C(=O)N1CCSCC1 [1111.02]	450
CC(C)C[C@H](NC(=O)Cc1ccccc1)C(=O)N[C@@H](CC(=O)O)C(=O)N[C@@H](Cc1ccccc1)C(=O)N1CCN(CCOCCO)CC1 [1111.07]	510
CCCC[C@H](NC(=O)Cc1ccccc1)C(=O)N[C@@H](CC(=O)O)C(=O)N[C@@H](Cc1ccccc1)C(=O)N1CCC[C@@H]1C(N)=O [1160.02] (PhAc-[Nle]DF[dP]-NH2)	49
CC(C)C[C@H](NC(=O)Cc1ccccc1)C(=O)N[C@@H](CC(=O)O)C(=O)N(C)[C@@H](Cc1ccccc1)C(=O)N1CCC[C@@H]1C(N)=O [1190.05] (PhAc-LD[NMeF][dP]-NH2)	0

same assay, conditions: prodrug compounds, potency before enzymatic conversion to active form; relative to SEQ ID NO:3 = 1

SMILES	Relative Potency
CC(C)C[C@H](NC(=O)Cc1ccccc1)C(=O)N[C@@H](CC(=O)OCC(=O)OCc1ccccc1)C(=O)N[C@@H](Cc1ccccc1)C(=O)N1CCC[C@@H]1C(N)=O [1067.01] (PhAc-LD(X7)F[dP]-NH2)	.97
CC(C)C[C@H](NC(=O)Cc1ccccc1)C(=O)N[C@@H](CC(=O)OCC(=O)O)C(=O)N[C@@H](Cc1ccccc1)C(=O)N1CCC[C@@H]1C(N)=O [1067.02] (PhAc-LD(X6)F[dP]-NH2)	.81
CCCCCCCCCCCCCCCCCCNC(=O)CCCCCNC(=O)[C@@H]1CCCN1C(=O)[C@H](Cc1ccccc1)NC(=O)[C@H](CC(=O)O)NC(=O)[C@H](CC(C)C)NC(=O)Cc1ccccc1 [1068.01, phenylacetyl-Leu-Asp-Phe-Pro-NH(CH2)5 C(O)NHC18 H37] (PhAc-LDFP[Ahx]-NHOctadecyl)	.91
CCCCCCCCCCNC(=O)[C@@H]1CCCN1C(=O)[C@H](Cc1ccccc1)NC(=O)[C@H](CC(=O)O)NC(=O)[C@H](CC(C)C)NC(=O)Cc1ccccc1 [1068.04] (PhAc-LDFP-NHDecyl)	2.13
CCCCCCCCCCCCCCCCCC(=O)OC1CCN(C(=O)[C@H](Cc2ccccc2)NC(=O)[C@H](CC(=O)O)NC(=O)[C@H](CC(C)C)NC(=O)Cc2ccccc2)CC1 [1068.05]	.63
CCCCCCCCCC(=O)OC1CCN(C(=O)[C@H](Cc2ccccc2)NC(=O)[C@H](CC(=O)O)NC(=O)[C@H](CC(C)C)NC(=O)Cc2ccccc2)CC1 [1068.06]	.63
CC(C)C[C@H](NC(=O)Cc1ccccc1)C(=O)N[C@@H](CC(=O)OCc1ccccc1)C(=O)N[C@@H](Cc1ccccc1)C(=O)N1CCC[C@@H]1C(N)=O [1068.07] (PhAc-LD(OBn)F[dP]-NH2)	0
CCCCCCCCCCOC(=O)C[C@H](NC(=O)[C@H](CC(C)C)NC(=O)Cc1ccccc1)C(=O)N[C@@H](Cc1ccccc1)C(=O)N1CCC[C@@H]1C(N)=O [1068.09] (PhAc-LD(ODecyl)F[dP]-NH2)	0
CCCCCCCCCCCCOC(=O)C[C@H](NC(=O)[C@H](CC(C)C)NC(=O)Cc1ccccc1)C(=O)N[C@@H](Cc1ccccc1)C(=O)N1CCC[C@@H]1C(N)=O [1068.10] (PhAc-LD(X5)F[dP]-NH2)	0
CCCCCCCCCCCCCCOC(=O)C[C@H](NC(=O)[C@H](CC(C)C)NC(=O)Cc1ccccc1)C(=O)N[C@@H](Cc1ccccc1)C(=O)N1CCC[C@@H]1C(N)=O [1068.11] (PhAc-LD(X1)F[dP]-NH2)	0
CCCCCCCCCCCCCCCCCCOC(=O)C[C@H](NC(=O)[C@H](CC(C)C)NC(=O)Cc1ccccc1)C(=O)N[C@@H](Cc1ccccc1)C(=O)N1CCC[C@@H]1C(N)=O [1068.12] (PhAc-LD(X8)F[dP]-NH2)	0
CCN(CC)C(=O)COC(=O)C[C@H](NC(=O)[C@H](CC(C)C)NC(=O)Cc1ccccc1)C(=O)N[C@@H](Cc1ccccc1)C(=O)N1CCC[C@@H]1C(N)=O [1068.13] (PhAc-LD(X4)F[dP]-NH2)	0
CCOC(=O)C[C@H](NC(=O)[C@H](CC(C)C)NC(=O)Cc1ccccc1)C(=O)N[C@@H](Cc1ccccc1)C(=O)N1CCC[C@@H]1C(N)=O [1190.01] (PhAc-LD(OEt)F[dP]-NH2)	0

Reference: US5936065A, “CS-1 peptidomimetics, compositions and methods of using the same” (Cytel Corporation, priority 1995, dated 1999)
